Reference: patent publication EP2821071A1, “Compounds for breast cancer treatment” (Institut d'Investigació Biomèdica de Bellvitge (IDIBELL), priority 2013, dated 2015)

What was measured:
[1] = tested on: MCF7-LTED cells; experiment: MTT cell viability assay; format: cell-based
Experimental: (§1) MCF7-LTED cells were established in phenol red-free Roswell Park Memorial Institute medium containing 10% dextran-coated charcoal-stripped fetal bovine serum. Cellular viability was evaluated using a standard methylthiazol tetrazolium (MTT; Sigma-Aldrich) assay. The results of these assays are expressed relative to vehicle treated controls and to the original time point.
MCF7 and MCF7-LTED cells were plated in 384-well microtiter plates and five compound dilutions (1 nM to 10 µM final concentration) from the LOPAC library (1,258 compounds, Sigma-Aldrich) were added to the cultures. Cell viability was assessed after 72 hours using MTT-based assays and the EnVision spectrofluorometer (Perkin-Elmer). The screen was performed in triplicate. The quality of the screen (Z'-factor > 0.5 for all screens) and the data was analyzed using the cell HTS2 module in the ScreenSaver database. The data was normalized between 0 and 1 using positive (1 µM phenylarsene oxide, Sigma-Aldrich) and negative (0.1% dimethyl sulfoxide, Merck) controls for cell viability. For hit selection, the difference between the normalize percentage inhibition (NPI) in MCF7 and MCF7-LTED cells was calculated by subtraction [ΔNPI = NPI(MCF7-LTED) - NPI(MCF7)] and the differentials were clustered with the MeV software package using the Cluster Affinity Search method with the Euclidean distance metric (threshold of 0.7).
Acquired resistance to aromatase inhibitors in postmenopausal women can be modeled in long-term estrogen-deprived (LTED) MCF7 cells. Using this model, a cell-based chemical compound screen was carried out to identify potential therapeutic strategies that could prevent and/or overcome resistance. More than 1,200 compounds were assessed for their differential effect on the viability (as defined by MTT-based assays) of MCF7-LTED cells relative to the parental MCF7 cells.
Having identified the comparative inhibitory effect of YC-1 on the viability of MCF7-LTED cells, we evaluated the effect of this compound on a collection of breast cancer cell lines. […]

[2] = tested on: phenylephrine-induced contractions of rabbit aorta; conditions: cited from earlier work
[3] = tested on: platelet aggregation; conditions: cited from earlier work
[4] = tested on: E2F1; experiment: E2F1 after YC-1 exposure of MCF7-LTED cells; format: cell-based; conditions: MCF7-LTED cells exposed to YC-1
Excerpt: (§2) To determine the YC-1 mechanism of action that may be selective in models of acquired resistance, the subcellular localization of ERα was first examined. Although ERα levels and localization were altered by YC-1 treatment, no substantial differences were observed between MCF7-LTED and MCF7 cells. Subsequently, whole-genome expression data was obtained and analyzed for the basal and YC-1-exposed conditions in both cell lines. Consistent with the results described above, expression of the ribosome pathway clearly distinguished MCF7-LTED and MCF7 cells in basal conditions. […] In contrast, exposure of MCF7-LTED cells to YC-1 led to alteration of the cell cycle pathway and a decrease in a central positive regulator of the cell cycle, E2F1.

[5] = tested on: phospho-serine 235/236 ribosomal S6 protein; experiment: Phospho-S6 after YC-1 exposure of MCF7 cells; format: cell-based; conditions: MCF7 cells exposed to YC-1
Excerpt: as §2

[6] = tested on: MCF7 cells; experiment: MTT cell viability assay; format: cell-based; conditions: Homo sapiens, MCF7 cell line
Experimental: as §1
[…] Cell viability was assessed after 72 hours using MTT-based assays and the EnVision spectrofluorometer (Perkin-Elmer). The screen was performed in triplicate. The quality of the screen (Z'-factor > 0.5 for all screens) and the data was analyzed using the cell HTS2 module in the ScreenSaver database. […] For hit selection, the difference between the normalize percentage inhibition (NPI) in MCF7 and MCF7-LTED cells was calculated by subtraction [ΔNPI = NPI(MCF7-LTED) - NPI(MCF7)] and the differentials were clustered with the MeV software package using the Cluster Affinity Search method with the Euclidean distance metric (threshold of 0.7).
Acquired resistance to aromatase inhibitors in postmenopausal women can be modeled in long-term estrogen-deprived (LTED) MCF7 cells. […] More than 1,200 compounds were assessed for their differential effect on the viability (as defined by MTT-based assays) of MCF7-LTED cells relative to the parental MCF7 cells. […]

[7] = tested on: MCF10A; experiment: MTT cell viability assay; format: cell-based; conditions: Homo sapiens, MCF-10A, MCF10A cell line
Experimental: as §1
(§3) Having identified the comparative inhibitory effect of YC-1 on the viability of MCF7-LTED cells, we evaluated the effect of this compound on a collection of breast cancer cell lines. […] For the remaining sensitive cell lines (as defined by an IC50 < 10 µM threshold), no associations with ERα and/or progesterone receptor (PR) and/or human epidermal growth factor receptor 2 (HER2) were observed (Table 1). Table 1. YC-1 IC50 (µM) values in breast cancer cell lines

[8] = tested on: HCC1937; experiment: MTT cell viability assay; format: cell-based; conditions: Homo sapiens, HCC1937 cell line
Experimental: as §1, §3

[9] = tested on: ZR751; experiment: MTT cell viability assay; format: cell-based; conditions: Homo sapiens, ZR-75-1, ZR751 cell line
Experimental: as §1, §3

[10] = tested on: MDA-MB-453; experiment: MTT cell viability assay; format: cell-based; conditions: Homo sapiens, MDA-MB-453 cell line
Experimental: as §1, §3

[11] = tested on: MCF7-HER2; experiment: MTT cell viability assay; format: cell-based; conditions: MCF7-HER2 cell line
Experimental: as §1, §3

[12] = tested on: MDA-MB-468; experiment: MTT cell viability assay; format: cell-based; conditions: Homo sapiens, MDA-MB-468 cell line
Experimental: as §1, §3

[13] = tested on: MDA-MB-231; experiment: MTT cell viability assay; format: cell-based; conditions: Homo sapiens, MDA-MB-231 cell line
Experimental: as §1, §3

[14] = tested on: T47D; experiment: MTT cell viability assay; format: cell-based; conditions: Homo sapiens, T47D cell line
Experimental: as §1, §3

[15] = tested on: AU565; experiment: MTT cell viability assay; format: cell-based; conditions: Homo sapiens, AU565 cell line
Experimental: as §1, §3

[16] = tested on: SKBR3; experiment: MTT cell viability assay; format: cell-based; conditions: Homo sapiens, SK-BR-3, SKBR3 cell line
Experimental: as §1, §3

[17] = tested on: BT474; experiment: MTT cell viability assay; format: cell-based; conditions: Homo sapiens, BT-474, BT474 cell line
Experimental: as §1, §3

[18] = tested on: ERα; experiment: Subcellular localization of ERα after YC-1 treatment; format: cell-based; conditions: MCF7-LTED and MCF7 cells; no substantial differences between the two
Excerpt: as §2

COc1cc2ncnc(Nc3ccc(F)c(Cl)c3)c2cc1OCCCN1CCOCC1 [Gefitinib, reference compound]
differences in the growth rate of the two cellular models ([1]; MCF7-LTED versus MCF7 cells, Fig. 1D): No differences

Nc1nc(-c2nn(Cc3ccccc3F)c3ncccc23)ncc1C1CC1 [BAY 41-2272]
IC50 [2]: 300 nM | differences in cell viability ([1]; MCF7-LTED versus MCF7 cells, validation, Fig. 1C): differences in cell viability, although of lesser magnitude | IC50 [3]: 36 nM

OCc1ccc(-c2nn(Cc3ccccc3)c3ccccc23)o1 [YC-1, 3-(5'-hydroxymethyl-2'-furyl)-1-benzylindazole]
E2F1 [4]: decrease | phospho-serine 235/236 ribosomal S6 protein [5]: decrease | IC50 [6]: 131 µM | IC50 ([1]; MCF7-LTED cell line (long-term estrogen-deprived), cell viability): 4.9 µM | IC50 [7]: 99 µM | IC50 [8]: 253 µM | IC50 [9]: 300 nM | IC50 [10]: 250 µM | IC50 [11]: 187 µM | IC50 [12]: 49 µM | IC50 [13]: 4.48 mM | IC50 [14]: 8.2 µM | IC50 [15]: 1300 nM | IC50 [16]: 1600 nM | IC50 [17]: 319 µM | ERα levels and localization [18]: altered
